From ChEMBL document CHEMBL1201862, “PubChem BioAssay data set” (2004)
Activity calls are given as the source filed them.

What was measured:
Format in all cases: functional
[1] = target: T1, Delta-type opioid receptor (Homo sapiens, UniProt P41143); test: DOR agonists, SAR follow-up, image-based (AID 2370)
[2] = target: T2, Kappa-type opioid receptor (Homo sapiens, UniProt P41145); test: KOR agonist analogs, imaging readout, SAR follow-up, image-based (AID 2359)
[3] = target: T2, Kappa-type opioid receptor
[4] = target: T2, Kappa-type opioid receptor; test: KOR antagonists by imaging, SAR follow-up, image-based (AID 2348)
[5] = target: T3, Mu-type opioid receptor (Homo sapiens, UniProt P35372); test: HTS Image-Based Screen for Agonists of the MOR Receptor. [Related pubchem assays (depositor defined):AID1777, AID1785, AID1786, AID2133]
T3 sequence (P35372 whole entry): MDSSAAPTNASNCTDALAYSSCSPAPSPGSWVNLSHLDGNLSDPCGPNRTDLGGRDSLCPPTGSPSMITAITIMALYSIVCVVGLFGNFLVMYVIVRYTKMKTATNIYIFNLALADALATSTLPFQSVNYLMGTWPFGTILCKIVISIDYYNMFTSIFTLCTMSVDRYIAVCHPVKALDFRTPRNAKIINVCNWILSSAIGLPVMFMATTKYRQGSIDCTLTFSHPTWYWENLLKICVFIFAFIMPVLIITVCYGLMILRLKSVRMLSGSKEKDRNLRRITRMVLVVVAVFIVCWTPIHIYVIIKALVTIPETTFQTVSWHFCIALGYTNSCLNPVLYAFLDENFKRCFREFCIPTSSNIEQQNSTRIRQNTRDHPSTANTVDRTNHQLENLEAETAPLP

[6] = target: T2, Kappa-type opioid receptor; remark: listed apart in the source
[7] = target: T1, Delta-type opioid receptor; test: HTS Image-Based Screen for Agonists of the DOR Receptor. [Related pubchem assays (depositor defined):AID1777, AID1786, AID2133]
[8] = target: T1, Delta-type opioid receptor; test: DOR antagonists, SAR follow-up, image-based (AID 2357)
[9] = target: T3, Mu-type opioid receptor; test: MOR agonists by imaging, SAR follow-up, image-based (AID 2352)
[10] = target: T1, Delta-type opioid receptor; test: HTS Image-Based Screen for Antagonists of the DOR Receptor. [Related pubchem assays (depositor defined):AID1777, AID1785, AID1786, AID2133]
[11] = target: Voltage-dependent T-type calcium channel subunit alpha-1H (Homo sapiens, UniProt O95180);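 also: channel activity triggered by adding a high calcium stimulation buffer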
Chain of Voltage-dependent T-type calcium channel subunit alpha-1H (O95180 whole entry): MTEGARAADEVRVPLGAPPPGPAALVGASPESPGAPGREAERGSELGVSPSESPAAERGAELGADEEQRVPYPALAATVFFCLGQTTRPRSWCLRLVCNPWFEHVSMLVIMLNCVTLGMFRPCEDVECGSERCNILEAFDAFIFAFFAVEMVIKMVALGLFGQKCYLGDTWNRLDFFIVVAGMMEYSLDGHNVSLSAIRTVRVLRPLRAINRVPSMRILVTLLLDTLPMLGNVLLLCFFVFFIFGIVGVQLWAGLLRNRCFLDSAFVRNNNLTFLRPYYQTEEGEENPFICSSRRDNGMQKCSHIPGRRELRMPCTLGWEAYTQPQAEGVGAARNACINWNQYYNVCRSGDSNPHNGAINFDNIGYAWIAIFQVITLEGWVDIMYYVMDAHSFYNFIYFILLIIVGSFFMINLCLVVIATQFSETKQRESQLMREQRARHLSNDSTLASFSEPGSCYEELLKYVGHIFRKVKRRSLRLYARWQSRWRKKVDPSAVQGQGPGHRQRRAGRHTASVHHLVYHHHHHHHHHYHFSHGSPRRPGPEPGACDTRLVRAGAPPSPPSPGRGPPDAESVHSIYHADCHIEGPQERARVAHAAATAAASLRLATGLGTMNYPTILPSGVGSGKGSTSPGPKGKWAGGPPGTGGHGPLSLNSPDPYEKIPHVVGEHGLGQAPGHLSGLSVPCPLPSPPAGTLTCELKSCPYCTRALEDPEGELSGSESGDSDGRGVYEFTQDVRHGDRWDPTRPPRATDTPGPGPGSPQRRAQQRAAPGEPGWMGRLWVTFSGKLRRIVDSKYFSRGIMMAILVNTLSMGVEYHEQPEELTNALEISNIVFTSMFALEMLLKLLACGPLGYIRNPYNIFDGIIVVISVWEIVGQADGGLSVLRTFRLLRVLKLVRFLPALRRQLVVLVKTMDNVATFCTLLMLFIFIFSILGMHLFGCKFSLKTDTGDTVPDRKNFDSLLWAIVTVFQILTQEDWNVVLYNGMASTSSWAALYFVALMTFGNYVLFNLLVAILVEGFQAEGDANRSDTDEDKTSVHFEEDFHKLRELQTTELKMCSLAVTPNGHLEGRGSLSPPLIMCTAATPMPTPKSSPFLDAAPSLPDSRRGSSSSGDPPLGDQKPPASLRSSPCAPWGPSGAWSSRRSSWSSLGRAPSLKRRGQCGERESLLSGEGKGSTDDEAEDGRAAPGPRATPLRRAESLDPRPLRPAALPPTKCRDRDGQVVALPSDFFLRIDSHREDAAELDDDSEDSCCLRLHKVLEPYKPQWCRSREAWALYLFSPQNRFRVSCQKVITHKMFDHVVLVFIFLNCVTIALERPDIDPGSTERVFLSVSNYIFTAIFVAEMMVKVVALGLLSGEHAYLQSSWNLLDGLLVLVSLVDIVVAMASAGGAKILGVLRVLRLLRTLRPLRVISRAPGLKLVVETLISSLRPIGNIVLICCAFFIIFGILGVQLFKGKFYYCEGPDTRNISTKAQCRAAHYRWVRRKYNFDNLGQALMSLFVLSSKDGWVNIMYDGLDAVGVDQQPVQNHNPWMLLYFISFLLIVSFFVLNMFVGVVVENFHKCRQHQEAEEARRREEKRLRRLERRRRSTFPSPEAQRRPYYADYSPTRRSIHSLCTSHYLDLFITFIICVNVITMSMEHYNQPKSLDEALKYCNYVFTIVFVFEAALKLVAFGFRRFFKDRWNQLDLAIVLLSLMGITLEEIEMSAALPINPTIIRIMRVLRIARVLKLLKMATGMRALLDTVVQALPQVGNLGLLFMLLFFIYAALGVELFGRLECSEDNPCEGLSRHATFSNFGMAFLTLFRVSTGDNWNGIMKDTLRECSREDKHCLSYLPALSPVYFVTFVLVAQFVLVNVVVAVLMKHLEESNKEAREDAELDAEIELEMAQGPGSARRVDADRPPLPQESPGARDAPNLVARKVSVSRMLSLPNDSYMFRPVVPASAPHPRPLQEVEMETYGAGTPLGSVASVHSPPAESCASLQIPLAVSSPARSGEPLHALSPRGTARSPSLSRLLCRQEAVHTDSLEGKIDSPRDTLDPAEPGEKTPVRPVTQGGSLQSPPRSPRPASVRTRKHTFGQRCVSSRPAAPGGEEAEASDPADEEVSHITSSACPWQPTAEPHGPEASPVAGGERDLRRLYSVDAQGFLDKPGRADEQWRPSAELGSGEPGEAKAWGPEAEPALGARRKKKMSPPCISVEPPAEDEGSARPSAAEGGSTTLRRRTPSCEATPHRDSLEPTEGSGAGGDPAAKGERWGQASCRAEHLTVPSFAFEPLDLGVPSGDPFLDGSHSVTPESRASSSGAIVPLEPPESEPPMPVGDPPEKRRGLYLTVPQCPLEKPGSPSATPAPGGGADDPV

[12] = target: T2, Kappa-type opioid receptor; test: SAR analysis of small molecule agonists of the kappa opioid receptor via a luminescent beta-arrestin assay. [Related pubchem assays (depositor defined):AID1777, AID1786, AID1966, AID2133, AID2136, AID2348, AID2352, AID2357, AID2359, AID2370, AID2420, AID2478, AID2491, AID2492, AID2493, AID2497, AID2498, AID2500, AID449737, AID488822, AID488842]
[13] = target: T3, Mu-type opioid receptor; test: MOR antagonists, SAR follow-up, image-based (AID 2420);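 also: compounds added before stimulation of receptor with agonist DAMGO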
[14] = target: T4, Cannabinoid receptor 2 (Homo sapiens, UniProt P34972); test: SAR analysis of antagonists of the Cannabinoid Receptor 2 using an Image-Based Assay. [Related pubchem assays (depositor defined):AID2013, AID2026]
T4 sequence (P34972 whole entry): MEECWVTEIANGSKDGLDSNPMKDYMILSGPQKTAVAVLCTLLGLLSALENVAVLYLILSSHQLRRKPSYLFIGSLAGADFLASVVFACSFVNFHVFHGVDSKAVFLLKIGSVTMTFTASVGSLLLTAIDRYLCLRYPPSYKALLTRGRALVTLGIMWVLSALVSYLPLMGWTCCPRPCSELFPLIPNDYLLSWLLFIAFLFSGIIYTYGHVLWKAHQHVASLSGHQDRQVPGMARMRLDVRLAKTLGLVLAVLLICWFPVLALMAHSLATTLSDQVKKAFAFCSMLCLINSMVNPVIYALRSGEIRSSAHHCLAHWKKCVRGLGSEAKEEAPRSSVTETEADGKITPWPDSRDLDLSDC

[15] = target: T5, G-protein coupled receptor 35 (Homo sapiens, UniProt Q9HC97); test: SAR analysis of Antagonists of the GPR35 Receptor using an Image-Based Assay - Set 3. [Related pubchem assays (depositor defined):AID2013, AID2026]
T5 sequence (Q9HC97 whole entry): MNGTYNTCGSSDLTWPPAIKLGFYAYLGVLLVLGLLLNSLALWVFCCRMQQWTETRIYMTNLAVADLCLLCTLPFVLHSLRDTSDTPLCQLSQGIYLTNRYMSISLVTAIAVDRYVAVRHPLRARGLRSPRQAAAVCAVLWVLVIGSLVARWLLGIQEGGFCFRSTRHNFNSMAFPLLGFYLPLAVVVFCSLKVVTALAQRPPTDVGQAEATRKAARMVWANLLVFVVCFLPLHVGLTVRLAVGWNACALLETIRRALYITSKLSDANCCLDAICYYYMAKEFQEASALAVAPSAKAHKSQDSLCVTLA

[16] = target: T6, Cannabinoid receptor 1 (Homo sapiens, UniProt P21554); test: SAR analysis of antagonists of the Cannabinoid Receptor 1 using an Image-Based Assay - Set 2. [Related pubchem assays (depositor defined):AID2013, AID2026]
T6 sequence (P21554 whole entry): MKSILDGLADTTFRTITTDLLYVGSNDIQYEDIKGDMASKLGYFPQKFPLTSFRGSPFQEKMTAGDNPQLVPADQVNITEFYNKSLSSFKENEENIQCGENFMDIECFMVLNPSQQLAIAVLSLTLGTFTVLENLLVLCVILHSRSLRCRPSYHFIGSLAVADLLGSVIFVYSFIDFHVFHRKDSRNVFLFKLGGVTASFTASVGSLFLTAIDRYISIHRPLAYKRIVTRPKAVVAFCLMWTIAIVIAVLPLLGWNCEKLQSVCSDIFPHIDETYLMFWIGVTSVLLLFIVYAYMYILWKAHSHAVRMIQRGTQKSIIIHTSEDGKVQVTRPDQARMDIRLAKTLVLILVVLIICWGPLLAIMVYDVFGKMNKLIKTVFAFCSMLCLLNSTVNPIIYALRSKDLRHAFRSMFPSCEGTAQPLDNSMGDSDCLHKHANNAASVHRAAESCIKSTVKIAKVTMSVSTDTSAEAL

[17] = target: T6, Cannabinoid receptor 1; test: SAR analysis of agonists of the Cannabinoid Receptor 1 using an Image-Based Assay - Set 2. [Related pubchem assays (depositor defined):AID2013, AID2026]
[18] = target: T4, Cannabinoid receptor 2; test: SAR analysis of agonists of the Cannabinoid Receptor 2 using an Image-Based Assay. [Related pubchem assays (depositor defined):AID2013, AID2026]
[19] = target: T7, G-protein coupled receptor 55 (Homo sapiens, UniProt Q9Y2T6); test: GPR55 antagonists blocking LPI-driven arrestin recruitment, primary screen, imaging, U2OS, beta-arrestin-GFP, LPI agonist (AID 2013);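 also: antagonist potency measured as reduced agonist-driven arrestin aggregation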
T7 sequence (Q9Y2T6 whole entry): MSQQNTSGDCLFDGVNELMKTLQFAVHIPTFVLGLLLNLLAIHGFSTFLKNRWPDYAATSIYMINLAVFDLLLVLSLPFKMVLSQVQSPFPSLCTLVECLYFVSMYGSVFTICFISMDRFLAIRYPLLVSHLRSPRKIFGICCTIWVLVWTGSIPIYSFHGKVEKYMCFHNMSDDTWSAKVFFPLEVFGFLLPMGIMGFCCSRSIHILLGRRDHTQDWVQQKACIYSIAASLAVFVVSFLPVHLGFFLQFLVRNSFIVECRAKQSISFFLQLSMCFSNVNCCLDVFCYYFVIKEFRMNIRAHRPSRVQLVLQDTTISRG

[20] = target: T8, Heat shock factor protein 1 (Mus musculus, UniProt P38532); test: inhibition of MG132-induced HSE-luciferase signal, confirmation, cell-based, NIH3T3, luminescence, dose retest (AID 2382);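 also: NIH3T3 fibroblasts with HSF1-driven luciferase reporter stressed by proteasome inhibitor MG132; luminescence from HSF1-driven luciferase expression after 8 hours of MG132 stress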
T8 sequence (P38532 whole entry): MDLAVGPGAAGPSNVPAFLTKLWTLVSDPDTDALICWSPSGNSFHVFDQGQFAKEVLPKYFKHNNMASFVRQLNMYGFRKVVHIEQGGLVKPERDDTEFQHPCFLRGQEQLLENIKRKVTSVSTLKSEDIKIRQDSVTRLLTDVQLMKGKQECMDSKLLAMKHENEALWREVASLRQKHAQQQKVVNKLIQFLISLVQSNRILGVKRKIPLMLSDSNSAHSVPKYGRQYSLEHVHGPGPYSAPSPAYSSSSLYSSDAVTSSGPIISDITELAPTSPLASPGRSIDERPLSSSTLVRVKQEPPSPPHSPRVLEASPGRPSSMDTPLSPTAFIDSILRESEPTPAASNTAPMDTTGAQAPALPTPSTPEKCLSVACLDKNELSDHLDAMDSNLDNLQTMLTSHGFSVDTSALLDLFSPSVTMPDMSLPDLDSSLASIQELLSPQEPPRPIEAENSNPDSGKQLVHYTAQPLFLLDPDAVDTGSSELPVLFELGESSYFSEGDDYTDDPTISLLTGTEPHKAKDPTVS

[21] = target: T5, G-protein coupled receptor 35; test: SAR analysis of Agonists of the GPR35 Receptor using an Image-Based Assay - Set 2. [Related pubchem assays (depositor defined):AID2013, AID2026]
[22] = target: T7, G-protein coupled receptor 55; test: GPR55 antagonist potency of analogs, SAR follow-up, imaging, U2OS, beta-arrestin-GFP, LPI agonist, set 2 (AID 2820)

T1 sequence (P41143 whole entry): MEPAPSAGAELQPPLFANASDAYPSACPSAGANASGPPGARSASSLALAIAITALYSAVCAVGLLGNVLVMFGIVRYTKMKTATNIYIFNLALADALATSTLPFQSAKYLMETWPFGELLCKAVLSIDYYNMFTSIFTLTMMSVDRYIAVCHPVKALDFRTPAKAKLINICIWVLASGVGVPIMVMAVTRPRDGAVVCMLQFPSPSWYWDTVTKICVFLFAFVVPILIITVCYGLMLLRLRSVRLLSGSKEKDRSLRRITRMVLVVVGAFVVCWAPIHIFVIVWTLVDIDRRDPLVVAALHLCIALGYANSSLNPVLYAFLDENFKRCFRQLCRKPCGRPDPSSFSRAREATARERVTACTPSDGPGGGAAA
T2 sequence (P41145 whole entry): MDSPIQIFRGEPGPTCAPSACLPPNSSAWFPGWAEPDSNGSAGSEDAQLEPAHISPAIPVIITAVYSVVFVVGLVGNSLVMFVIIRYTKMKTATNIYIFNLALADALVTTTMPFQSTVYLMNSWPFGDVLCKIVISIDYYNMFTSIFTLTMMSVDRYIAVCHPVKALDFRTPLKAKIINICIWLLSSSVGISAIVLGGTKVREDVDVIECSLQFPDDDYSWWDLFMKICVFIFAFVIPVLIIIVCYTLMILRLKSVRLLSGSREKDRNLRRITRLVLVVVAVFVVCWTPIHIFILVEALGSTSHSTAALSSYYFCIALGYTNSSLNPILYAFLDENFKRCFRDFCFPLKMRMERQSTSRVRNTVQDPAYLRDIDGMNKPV

Q: `COc1cc(Cl)c(C)cc1NC(=O)CSc1nnc(-c2ccccn2)n1Cc1ccco1` was tested. Which EC50 [1] did it give?
A: The EC50 was > 32 µM (inactive).

Q: What about the EC50 [2] of the same compound?
A: Its EC50 is 16.3 µM (inactive).

Q: What about the EC50 [3] of the same compound?
A: Its EC50 is 20.3 µM.

Q: And the IC50 [4]?
A: The IC50 was > 32 µM (inactive).

Q: What about the EC50 [5] of the same compound?
A: The EC50 was > 32 µM (inactive).

Q: And the EC50 [6]?
A: The EC50 was 11.9 µM.

Q: And the EC50 [7]?
A: The EC50 was > 32 µM (inactive).

Q: What about the IC50 [8] of the same compound?
A: The IC50 was > 32 µM (inactive).

Q: And the EC50 [9]?
A: Its EC50 is > 32 µM (inactive).

Q: What about the IC50 [10] of the same compound?
A: The IC50 was > 32 µM (inactive).

Q: What about the EC50 [11] of the same compound?
A: The EC50 was 7.53 µM (active).

Q: And the EC50 [12]?
A: The EC50 was > 10 µM (inactive).

Q: What about the IC50 [13] of the same compound?
A: The IC50 was > 32 µM (inactive).

Q: `CCN1C(=O)C(c2ccc(O)cc2)(c2ccc(O)cc2)c2ccccc21` was tested. Which IC50 [14] did it give?
A: The IC50 was > 32 µM (inactive).

Q: What about the IC50 [15] of the same compound?
A: The IC50 was > 32 µM (inactive).

Q: And the IC50 [16]?
A: The IC50 was 22 µM (inactive).

Q: What about the EC50 [17] of the same compound?
A: Its EC50 is > 32 µM (inactive).

Q: What about the EC50 [18] of the same compound?
A: The EC50 was > 32 µM (inactive).

Q: And the IC50 [19]?
A: The IC50 was 1.74 µM (active).

Q: What about the EC50 [20] of the same compound?
A: Its EC50 is > 195 µM (not active).

Q: And the EC50 [21]?
A: The EC50 was > 32 µM (inactive).

Q: And the IC50 [22]?
A: Its IC50 is 0.506 µM (active).
